Reference: article PMC2763540 (Chemistry & biology, 2009)
Values joined by “and” are separate entries in the source; they are usually repeats but may differ in a detail not shown here. Identical values can stand only once. “Also recorded” adds a separate entry of the source. Like-named read-outs stand apart in the source and are kept apart here.

Tests used:
[1] = tested on: hoiamide A-induced elevation of neuronal [Na+]i in neocortical neurons; type: cell-based, mouse (Swiss-Webster)
[2] = tested on: neurotoxin site 2 on VGSCs; conditions: cited from earlier work
[3] = tested on: voltage-gated sodium channels; type: cell-based, mouse (Swiss-Webster)
[4] = tested on: neurotoxin site 2 on VGSCs; type: binding, mouse (Swiss-Webster)
[5] = tested on: voltage-gated sodium channels; conditions: cited from earlier work
[6] = tested on: neurotoxin site 5 on VGSCs; conditions: cited from earlier work
[7] = tested on: neurotoxin site 2 on VGSCs; type: cell-based, mouse (Swiss-Webster)
[8] = tested on: mouse neocortical neurons
[9] = tested on: cancer cells

For `CC1(C)[C@H](C(=O)O[C@H](C#N)c2cccc(Oc3ccccc3)c2)[C@@H]1C=C(Br)Br` [deltamethrin], the “effect on maximum response of hoiamide A-induced sodium influx” value [1] is listed as “significantly increased the maximum response; also recorded: enhance hoiamide A-induced elevation of neuronal [Na^+]i”, the “effect on [3H]BTX specific binding (allosteric)” value [2] is listed as “dramatically increased” and the “sodium influx when given alone” value [3] is listed as “inactive alone”.

For `COc1ccc(C(=O)O[C@H]2CC[C@@]3(C)[C@@H]4CC[C@H]5[C@]6(O)C[C@H](O)[C@@]7(O)[C@@H](CN8C[C@@H](C)CC[C@H]8[C@@]7(C)O)[C@]6(O)C[C@@]53O[C@]24O)cc1OC` [veratridine], the “inhibition of [3H]BTX specific binding” value [4] was “much less potent than hoiamide A; also recorded: inhibit the specific binding of [^3H]BTX to VGSCs” and the IC50 ([4]; read-out: IC50, inhibition of [3H]BTX specific binding) was 33000 nM.

In the case of batrachotoxin, the “type of agonism at neurotoxin site 2” value [5] is listed as “full agonist at neurotoxin site 2”, the “elevation of neuronal [Na+]i / sodium influx” value [3] is listed as “rapid and concentration-dependent elevation of neuronal [Na^+]i” and the “maximum response, elevation of neuronal [Na+]i” value [3] is listed as “greater than 60 mM”. It also gave an EC50 ([3]; read-out: EC50 for batrachotoxin-induced elevation of neuronal [Na+]i) of 11.4 nM.

In the case of `NS(=O)(=O)c1cccc2c1c([N+](=O)[O-])cc1nc(O)c(O)nc12` [NBQX], the “effect on hoiamide A-induced Na+ influx” value [1] is reported as “no effect”.

For brevetoxin 3 [PbTx-3], the “effect on maximum response of hoiamide A-induced sodium influx” value [1] was “significant increase in the maximum response; also recorded: enhance hoiamide A-induced elevation of neuronal [Na^+]i” and the “sodium influx when given alone” value [3] was “inactive alone”.

For `C=CC/C=C\C=C/[C@H]1O[C@H]2C[C@H]3O[C@H]4CC[C@H]5O[C@H]6C[C@@]7(C)O[C@@]8(C)[C@@H](O)C[C@H](CCCO)O[C@@H]8C[C@@H]7O[C@@H]6C[C@@H]5O[C@]4(C)C[C@]3(C)O[C@@H]2C=C[C@]1(C)O` [gambierol], the “effect on PbTx-1 induced elevation of neuronal [Na+]i” value [6] is listed as “inhibited the full agonist PbTx-1 induced elevation of neuronal [Na^+]i” and the “type of agonism at neurotoxin site 5” value [6] is listed as “low efficacy partial agonist at neurotoxin site 5”.

With `C[C@]12N[C@H](Cc3ccccc31)c1ccccc12` [MK-801] the “effect on hoiamide A-induced elevation of neuronal [Na+]i” value [1] was “partial, but statistically significant, decrease”.

For `CCC[C@@H](C)[C@H](O)[C@H](C)[C@H]1OC(=O)[C@H]([C@@H](C)O)NC(=O)[C@H](C(C)C)OC(=O)[C@H](C)[C@H](O)[C@H]([C@@H](C)CC)NC(=O)[C@@]2(C)CSC(=N2)[C@@]2(C)CSC(=N2)c2csc(n2)C[C@H](OC)[C@@H]1C` [hoiamide A], the “change of hoiamide A EC50 value by modulator” value [1] was “without altering the hoiamide A EC50 value; also recorded: no corresponding effect on the hoiamide A EC50 value”, the “maximum response of hoiamide A-induced sodium influx, AUC” value [1] was 89.9 fluorescence x min and 141.4 fluorescence x min and 143.4 fluorescence x min and the “inhibition of [3H]BTX specific binding” value [4] was “concentration-dependent inhibition of [^3H]BTX specific binding; also recorded: inhibit the specific binding of [^3H]BTX to VGSCs”. The IC50 ([4]; read-out: IC50, inhibition of [3H]batrachotoxin binding) was 92.8 nM, the “effect on batrachotoxin-induced sodium influx (SBFI AUC)” value [7] was “concentration-dependent reduction in batrachotoxin-induced sodium influx; also recorded: reversal of batrachotoxin (30 nM)-induced elevation of neuronal [Na^+]i” and the “elevation of neuronal [Na+]i / sodium influx” value [3] was “rapid and concentration-dependent elevation of neuronal [Na^+]i; also recorded: VGSC activator; also recorded: maximum sodium influx that was less than that of the full agonist, batrachotoxin”. The “maximum response, elevation of neuronal [Na+]i” value [3] was “less than 20 mM”, the “relative efficacy for elevation of neuronal [Na+]i” value [3] was 0.38 and the “type of agonism at neurotoxin site 2 on VGSCs” value [3] was “partial agonist at neurotoxin site 2; also recorded: partial agonism at the neurotoxin site 2 on VGSCs”. For the same compound, the EC50 ([3]; read-out: EC50 for hoiamide-induced sodium influx) was 2310 nM, the IC50 [8] was 47.5 nM and the “cytotoxicity to cancer cells” value [9] was “modest cytotoxicity”.

For `C=C(C=O)C[C@@H]1C[C@H](O)[C@]2(C)O[C@@H]3C[C@@H]4O[C@@H]5C[C@]6(C)O[C@]7(C)CC[C@@H]8O[C@@H]9C[C@]%10(C)O[C@@H]%11C(C)=CC(=O)O[C@H]%11C[C@H]%10O[C@H]9C[C@@H](C)[C@H]8O[C@H]7C[C@H]6O[C@H]5C/C=C\[C@H]4O[C@H]3C[C@H]2O1` [brevetoxin], the “effect on [3H]BTX specific binding (allosteric)” value [2] is listed as “dramatically increased”.

In the case of `NC1=N[C@H](O)[C@H]2[C@H]3O[C@]4(O)O[C@@H]([C@@H](O)[C@@]2(N1)[C@@H]4O)[C@]3(O)CO` [TTX, tetrodotoxin], the “effect on hoiamide A-induced elevation of neuronal [Na+]i” value [1] is reported as “eliminated the hoiamide A-induced elevation of neuronal [Na^+]i; also recorded: inhibition of hoiamide A-induced elevation of neuronal [Na^+]i”.
